Results from US20260183411A1, “TARGETING SORTILIN” (priority 2024, published 2026).

Experiments:
GAPDH mRNA [1] = test: GAPDH mRNA knockdown in HEK293 cells overexpressing SORT-1 (RT-qPCR); format: cell-based; details: HEK293 + SORT1 − CQ
Description: (§1) These GAPDH siRNA-peptide conjugates were then evaluated in HEK293 cells and the neuronal cell line, neuro2A.

GAPDH mRNA [2] = test: GAPDH mRNA knockdown in differentiated Neuro-2a cells (RT-qPCR); format: cell-based; details: Neuro2a − CQ
Description: as §1

## Maleimide-(bAla)(Sar)(Sar)(Sar)(Sar)APRWDAPLRDPALRQ(B13)(G48) [Peptide 2-GAPDH6-thiol]
GAPDH mRNA [1]
  GAPDH mRNA % knockdown compared to untreated cells: 40%
GAPDH mRNA [2]
  GAPDH mRNA % knockdown compared to untreated cells: 0%
